According to publication PMC2376925 (British Journal of Cancer, 2003):
Structures can show the parent of a compound that is named as a salt. One block for each molecule: values may come before it.

Experiments:
[1] = Plasma pharmacokinetics of irinotecan, SN-38, SN-38G and APC (HPLC, noncompartmental); conditions: for change of AUC when irinotecan administered immediately after epirubicin: Course 1 vs Course 2, paired t-test; for AUC in Course 1 compared to Course 2, higher by: second patient with elevated bilirubin (1.5 times ULN), irinotecan 80 mg m^−2; for SN-38G AUCt: mean ±s.d., dose standardised to 100 mg irinotecan
Method: (§1) Atropine was administered if diarrhoea, abdominal cramping or other symptoms of early cholinergic syndrome occurred within 1 h of receiving irinotecan. […] Dexamethasone and a 5-HT3 antagonist were administered to all patients as standard premedications unless contraindicated.
(§2) Samples were centrifuged immediately at room temperature, and plasma was separated and stored in aliquots at −20°C until analysis.
Irinotecan, SN-38 and APC concentrations were determined using a high-performance liquid chromatography assay. […] The fluorescence detector was operated at an excitation wavelength of 372 nm, irinotecan and APC were monitored at an emission wavelength of 425 nm, while SN-38 and the internal standard were monitored at 535 nm. SN-38 glucuronide (SN-38G) concentrations were estimated as increases in SN-38 concentrations after incubation of plasma samples with β-glucuronidase.
(§3) Pharmacokinetic parameters were determined by noncompartmental methods using WinNonlin (Version 3.0, Pharsight Corp., Mountain View, CA, USA). […] Pharmacokinetic parameters were compared using the paired t-test. A probability of P<0.05 was considered significant. The program S-PLUS for Windows (Version 6) (Insightful Corp., Seattle, WA, USA) was used for statistical analysis.

[2] = clinical; conditions: for half-life: t1/2 (elimination half-life); for half-life / clearance: mean ±s.d.; for clearance: plasma, intravenous, CL (total body clearance)
Method: as §1, §2
Samples were added to C8 solid-phase extraction tubes and extracts were dried on an evaporator. […] The fluorescence detector was set at excitation 480 nm and emission 560 nm.
as §3

[3] = cited from earlier work; for AUC when given together with paclitaxel: attributed to vehicle Cremophor EL, ref Yamamoto et al, 1999; for AUC when given together with carboplatin: ref Okamoto et al, 1998
[4] = design: method as in Vanhoefer et al, 2001; conditions: single-agent, weekly or every-3-week regimen; ref Vanhoefer et al, 2001; cited from earlier work
[5] = tested on: patients with advanced solid tumours; conditions: triple combination, Day 1 every 3 weeks; normal total serum bilirubin
Method: as §1

[6] = human, plasma, intravenous, 100 mg

SMILES: CCc1c2c(nc3ccc(OC(=O)N4CCC(NCCCCC(=O)O)CC4)cc13)-c1cc3c(c(=O)n1C2)COC(=O)[C@]3(O)CC [APC]
change of AUC when irinotecan administered immediately after epirubicin [1]: increased significantly
APC AUCt ([1]; human, in vivo, 100 mg): 725 ± 460 ng·h/mL
AUC in Course 1 compared to Course 2, higher by [1]: > 60%

Epi-ol AUCt ([2]; human, in vivo, 100 mg): 788 ± 482 ng·h/mL
SMILES: COc1cccc2c1C(=O)c1c(O)c3c(c(O)c1C2=O)C[C@@](O)([C@@H](O)CO)C[C@@H]3O[C@H]1C[C@H](N)[C@@H](O)[C@H](C)O1 [Epi-ol, epirubicinol]

SMILES: CCc1c2c(nc3ccc(O[C@@H]4O[C@H](C(=O)O)[C@@H](O)[C@H](O)[C@H]4O)cc13)-c1cc3c(c(=O)n1C2)COC(=O)[C@]3(O)CC [SN-38G, SN-38 glucuronide]
change of AUC when irinotecan administered immediately after epirubicin [1]: increased significantly
SN-38G AUCt ([1]; Irinotecan → epirubicin (Course 2)): 378 ± 223 ng·h/mL
SN-38G AUCt ([1]; Irinotecan+epirubicin (Course 1)): 558 ± 480 ng·h/mL
AUC in Course 1 compared to Course 2, higher by [1]: > 60%

SMILES: CCc1c2c(nc3ccc(O)cc13)-c1cc3c(c(=O)n1C2)COC(=O)[C@]3(O)CC [SN-38]
SN-38 AUCt ([1]; human, in vivo): 102 ± 54 ng·h/mL
SN-38 AUCt ([1]; human, in vivo, 100 mg): 78 ± 36 ng·h/mL
AUC when given together with paclitaxel [3]: increased
AUC when irinotecan is coadministered with doxorubicin ([3]; ref Dunphy et al, 2001): not increased
AUC when given together with carboplatin [3]: lower

SMILES: COc1cccc2c1C(=O)c1c(O)c3c(c(O)c1C2=O)C[C@@](O)(C(=O)CO)C[C@@H]3O[C@H]1C[C@H](N)[C@@H](O)[C@H](C)O1 [epirubicin]
Vd (apparent volume of distribution) ([2]; human, in vivo): 2563 ± 1122 L
AUC(0-inf) ([2]; human, in vivo, 100 mg): 910 ± 368 ng·h/mL
AUC(0-t) ([2]; human, in vivo, 100 mg): 723 ± 296 ng·h/mL
Vd ([2]; human, in vivo, Vd (apparent volume of distribution)): 3480 ± 1940 L
half-life ([2]; human, in vivo, Irinotecan → epirubicin (Course 2)): 16 ± 7.8 h
half-life ([2]; human, in vivo, Irinotecan+epirubicin (Course 1)): 23.1 ± 10.8 h
clearance ([2]; human, Irinotecan → epirubicin (Course 2)): 2080 mL/min
clearance ([2]; human, Irinotecan+epirubicin (Course 1)): 1830 mL/min
effect of sequence of drug administration on pharmacokinetic parameters ([2]; in vivo): not affected by the sequence of drug administration

SMILES: CCc1c2c(nc3ccc(OC(=O)N4CCC(N5CCCCC5)CC4)cc13)-c1cc3c(c(=O)n1C2)COC(=O)[C@]3(O)CC [irinotecan, Irinotecan hydrochloride]
frequency of grade 3/4 late diarrhoea [4]: > 20%
AUC(0-inf) [1, 6]: 2960 ± 1020 ng·h/mL
AUC(0-t) [1, 6]: 2870 ± 916 ng·h/mL
AUC when given together with paclitaxel [3]: increased
share of irinotecan and its metabolites excreted via the biliary tract [3]: Over 60%
doses up to which pharmacokinetics is linear ([3]; ref Mathijssen et al, 2001): up to 180 mg m^−2
AUC when given together with carboplatin [3]: lower
share of the administered irinotecan dose converted to SN-38 ([3]; ref Slatter et al, 2000): less than 10%
recommended phase II dose (MTD) [5]: 110 mg m^−2
